What was measured:
[1] = tested on: Aspergillus fumigatus B42928; assay: Antifungal activity in vitro (resazurin susceptibility screen), Inf. E; assay type: cell-based; conditions: Aspergillus fumigatus B42928; 27 °C, 48 hours, resa time 17 hours; read-out: Inf. E pIC50 (converted)
Outline: (§1)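 Serially diluted compounds were pre-spotted into 96-well U-bottom plates, then each well received 10^3 cfu of cryopreserved fungal inoculum in 200 μl RPMI-MOPS medium. Every plate carried a compound-free growth control (100%) and a medium-only control (0%), with resazurin as read-out.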

[2] = Liver metabolic stability assay, hLM; assay type: in vitro ADME, human; conditions: human liver microsomes, 1 mg protein/ml, 5 μM test compound, 15 min, 37 °C
[3] = tested on: Trichophyton rubrum B68183; assay: Antifungal activity in vitro (resazurin susceptibility screen), Inf. C; assay type: cell-based; conditions: Trichophyton rubrum B68183; 27 °C, 7 days, resa time 24 hours; read-out: Inf. C pIC50 (converted)
Outline: as §1

[4] = tested on: Scedosporium prolificans IHEM21157; assay: Antifungal activity in vitro (resazurin susceptibility screen), Inf. I; assay type: cell-based; conditions: Lomentospora prolificans, 37 °C, 48 hours, resa time 17 hours, read-out: Inf. I pIC50 (converted)
Experimental: (§2) The standard susceptibility screen was performed in 96-well plates (U-bottom, Greiner Bio-One). […] These serial dilutions (10 n1) were then spotted onto test-plates that could be stored in the dark at 4° C. for a maximum period of 2 weeks. […] The different fungal species/isolates (Table 3a) were cryopreserved and 1/1000 diluted in medium just prior to use. A standard inoculum of 200 μl containing 10^3 colony-forming unit (cfu) was then added to each well. A positive control (100% growth=fungal culture without antifungal) and a negative control (0% growth ═RPMI-MOPS medium) were included on each plate. […] [table]

[5] = tested on: Mucor circinelloides IHEM21105; assay: Antifungal activity in vitro (resazurin susceptibility screen), Inf. L; assay type: cell-based; conditions: 27 °C, 48 hours, resa time 17 hours, read-out: Inf. L pIC50 (converted)
Experimental: as §2

[6] = tested on: Trichophyton mentagrophytes B70554; assay: Antifungal activity in vitro (resazurin susceptibility screen), Inf. G; assay type: cell-based; conditions: Trichophyton mentagrophytes, B70554, Trichophyton mentagrophytes B70554; 27 °C, 7 days, resa time 24 hours; read-out: Inf. G pIC50 (converted)
Outline: (§3)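 Each well was inoculated with 10^3 cfu of fungus onto dried, pre-spotted compound serial dilutions in RPMI-MOPS medium, with fungal growth read by resazurin. Growth was referenced to drug-free culture (100%) and medium-only (0%) controls on each plate.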

Rhizopus oryzae IHEM5223 = assay: Antifungal activity in vitro (resazurin susceptibility screen), Inf. J; assay type: cell-based; conditions: Rhizopus arrhizus, 37 °C, 24 hours, resa time 6 hours, read-out: Inf. J pIC50 (converted)
Experimental: as §2

CYP2D6 = CYP2D6 (Homo sapiens, UniProt P10635); assay: Cytochrome P450 inhibition, Protocol A, cDNA expressed proteins, fluorogenic substrate; assay type: in vitro ADME; conditions: % inhibition at 10 μM; substrate AMMC; cDNA expressed protein
Outline: (§4)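 cDNA-expressed enzymes with fluorogenic substrates (three separate ones for CYP3A4) in sodium/potassium buffer pH 7.4 plus NADPH-generating system. Compounds at 1 nM to 10 μM final, prewarmed 5 min at 37° C, reaction started with NADP+, stopped, then fluorescence measured.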

CYP3A4 = CYP3A4 (Homo sapiens, UniProt P08684); assay: Cytochrome P450 inhibition, Protocol A, cDNA expressed proteins, fluorogenic substrates; assay type: in vitro ADME; conditions: % inhibition at 10 μM, cDNA expressed protein; for hCYP3A4_BFC_Pct_Inh: substrate BFC; for hCYP3A4_BQ_Pct_Inh: substrate BQ; for hCYP3A4_DBF_Pct_Inh: substrate DBF
Outline: as §4

[7] = tested on: Candida parapsilosis B66126; assay: Antifungal activity in vitro (resazurin susceptibility screen), Inf. D; assay type: cell-based; conditions: Lodderomyces parapsilosis; Candida parapsilosis B66126; 37 °C, 24 hours, resa time 4 hours; read-out: Inf. D pIC50 (converted)
Outline: as §3

[8] = tested on: Sporothrix schenkii B62482; assay: Antifungal activity in vitro (resazurin susceptibility screen), Inf. A; assay type: cell-based; conditions: Sporothrix, B62482, Sporothrix schenkii B62482; 27 °C, 4 days, resa time 24 hours; highest in-test concentration 64 μM; read-out: Inf. A pIC50 (converted)
Outline: as §1

[9] = Liver metabolic stability assay, gpLM; assay type: in vitro ADME, guinea pig; conditions: guinea pig microsomes, 1 mg protein/ml, 5 μM test compound, 15 min, 37 °C
[10] = tested on: Scedosporium apiospermum IHEM3817; assay: Antifungal activity in vitro (resazurin susceptibility screen), Inf. H; assay type: cell-based; conditions: 37 °C, 48 hours, resa time 17 hours, read-out: Inf. H pIC50 (converted)
Experimental: as §2

Sequence of CYP2D6 (P10635 whole entry): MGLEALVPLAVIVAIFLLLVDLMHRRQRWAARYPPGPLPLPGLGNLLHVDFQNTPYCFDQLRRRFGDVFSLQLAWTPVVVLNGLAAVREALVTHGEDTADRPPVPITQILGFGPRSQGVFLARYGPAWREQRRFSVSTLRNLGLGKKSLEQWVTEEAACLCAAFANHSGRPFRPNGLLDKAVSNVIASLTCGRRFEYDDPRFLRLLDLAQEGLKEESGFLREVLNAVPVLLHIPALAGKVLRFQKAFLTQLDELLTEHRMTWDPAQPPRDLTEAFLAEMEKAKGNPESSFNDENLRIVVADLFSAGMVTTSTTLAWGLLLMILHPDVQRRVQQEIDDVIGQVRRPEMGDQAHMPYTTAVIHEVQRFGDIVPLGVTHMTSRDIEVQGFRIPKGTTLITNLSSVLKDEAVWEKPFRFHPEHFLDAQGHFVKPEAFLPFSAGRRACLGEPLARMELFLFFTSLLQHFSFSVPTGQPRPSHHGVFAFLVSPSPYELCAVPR
Sequence of CYP3A4 (P08684 whole entry): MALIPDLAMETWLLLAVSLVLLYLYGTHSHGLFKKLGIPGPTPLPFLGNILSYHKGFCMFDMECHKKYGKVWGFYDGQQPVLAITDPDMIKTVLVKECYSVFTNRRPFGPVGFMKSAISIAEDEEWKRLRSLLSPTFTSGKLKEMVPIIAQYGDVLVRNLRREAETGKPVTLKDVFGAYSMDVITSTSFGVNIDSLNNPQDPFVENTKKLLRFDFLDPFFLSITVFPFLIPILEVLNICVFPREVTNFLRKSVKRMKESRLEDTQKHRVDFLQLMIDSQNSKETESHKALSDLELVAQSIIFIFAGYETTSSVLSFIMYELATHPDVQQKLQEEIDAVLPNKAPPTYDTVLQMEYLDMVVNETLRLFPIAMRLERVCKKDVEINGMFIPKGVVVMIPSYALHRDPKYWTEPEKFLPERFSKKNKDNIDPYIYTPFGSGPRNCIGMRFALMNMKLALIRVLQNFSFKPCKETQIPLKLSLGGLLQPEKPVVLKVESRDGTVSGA

Row | Compound | IC50 [1] [µM] | %-compound metabolised_Met_hLM [2] [%] | IC50 [3] [µM] | IC50 [4] [µM] | IC50 [5] [µM] | IC50 [6] [µM] | IC50 (Rhizopus oryzae IHEM5223) [µM] | hCYP2D6_AMMC_Pct_Inh (CYP2D6) [%] | hCYP3A4_BFC_Pct_Inh (CYP3A4) [%] | hCYP3A4_BQ_Pct_Inh (CYP3A4) [%] | hCYP3A4_DBF_Pct_Inh (CYP3A4) [%] | IC50 [7] [µM] | IC50 [8] [µM] | %-compound metabolised Met_gpLM [9] [%] | IC50 [10] [µM]
1 | CC(=O)c1ccc(C2=NCc3cccc(Cl)c3-n3cccc32)cc1 [Compound 15, 1-[4-(10-chloro-6H-pyrrolo[1,2-a][1,4]benzodiazepin-4-yl)phenyl]-ethanone] | 0.501 | 17 | 0.126 | 2 | > 63.1 | 0.398 | > 63.1 | 63 | 1 | 40 | 16 | > 63.1 | 1.58 | 44 | 10
2 | CC(=O)c1cccc(C2=NCc3c(Cl)cccc3-n3cccc32)c1 [Compound 16, 1-[3-(7-chloro-6H-pyrrolo[1,2-a][1,4]benzodiazepin-4-yl)phenyl]-ethanone] | 0.631 | 87 | 0.0501 | > 63.1 | > 63.1 | 0.398 | > 63.1 | 55 | 29 | 46 | 64 | > 63.1 | 25.1 | 100 | > 63.1
3 | CC(=O)c1cc(C2=NCc3c(Cl)cccc3-n3cccc32)ccc1F [Compound 19, 1-[5-(7-chloro-6H-pyrrolo[1,2-a][1,4]benzodiazepin-4-yl)-2-fluorophenyl]-ethanone] | 2 | 36 | 0.2 | 1.26 | > 63.1 | 0.794 | > 63.1 | 33 | 26 | 49 | 49 | > 63.1 | > 63.1 | 80 | > 63.1

The next lines start with the values.

Row | IC50 [1] [µM] | %-compound metabolised_Met_hLM [2] [%] | IC50 [3] [µM] | IC50 [4] [µM] | IC50 [5] [µM] | IC50 [6] [µM] | IC50 (Rhizopus oryzae IHEM5223) [µM] | hCYP2D6_AMMC_Pct_Inh (CYP2D6) [%] | hCYP3A4_BFC_Pct_Inh (CYP3A4) [%] | hCYP3A4_BQ_Pct_Inh (CYP3A4) [%] | hCYP3A4_DBF_Pct_Inh (CYP3A4) [%] | IC50 [7] [µM] | IC50 [8] [µM] | %-compound metabolised Met_gpLM [9] [%] | IC50 [10] [µM] | Compound
4 | 0.501 | 26 | 0.1 | 0.631 | > 63.1 | 0.398 | > 63.1 | 20 | 1 | 25 | 5 | > 63.1 | > 63.1 | 88 | > 63.1 | CC(=O)c1ccc(C2=NCc3c(F)cccc3-n3cccc32)cc1 [Compound 20, 1-[4-(7-fluoro-6H-pyrrolo[1,2-a][1,4]benzodiazepin-4-yl)phenyl]-ethanone]
5 | 0.251 | 27 | 0.0501 | 1.26 | > 63.1 | 0.316 | > 63.1 | 53 | 39 | 63 | 89 | 25.1 | 3.98 | 73 | 50.1 | CC(=O)c1ccc(C2=NCc3c(Cl)cc(Cl)cc3-n3cccc32)cc1 [Compound 22, 1-[4-(7,9-dichloro-6H-pyrrolo[1,2-a][1,4]benzodiazepin-4-yl)phenyl]-ethanone]
6 | 0.794 | 20 | 0.126 | 2.51 | > 63.1 | 0.631 | > 63.1 | 3 | 3 | 39 | 3 | 3.98 | 20 | 53 | 7.94 | CC(=O)c1ccc(C2=NCc3c(F)cc(F)cc3-n3cccc32)cc1 [Compound 24, 1-[4-(7,9-difluoro-6H-pyrrolo[1,2-a][1,4]benzodiazepin-4-yl)phenyl]-ethanone]
